According to patent US20070219186A1, “Pyrazolo[1,5-A]pyrimidine derivatives and methods of use thereof” (priority 2006, published 2007):
Read-outs that look alike come from different tables or passages of the source.

Legend:
human B-Raf = target: T1, human B-Raf (Homo sapiens, UniProt P15056); assay: B-Raf Kinase to MEK1 ELISA; format: biochemical; settings: for inhibition at 10 µM: read-out: % Inhib./10 uM; for % Inhib./10 uM: single point assay
T1 construct: Flag; GST; made in house; host or cells: Sf9 insect cells (B-Raf); E. coli (MEK1-GST)
T1 sequence (P15056 whole entry): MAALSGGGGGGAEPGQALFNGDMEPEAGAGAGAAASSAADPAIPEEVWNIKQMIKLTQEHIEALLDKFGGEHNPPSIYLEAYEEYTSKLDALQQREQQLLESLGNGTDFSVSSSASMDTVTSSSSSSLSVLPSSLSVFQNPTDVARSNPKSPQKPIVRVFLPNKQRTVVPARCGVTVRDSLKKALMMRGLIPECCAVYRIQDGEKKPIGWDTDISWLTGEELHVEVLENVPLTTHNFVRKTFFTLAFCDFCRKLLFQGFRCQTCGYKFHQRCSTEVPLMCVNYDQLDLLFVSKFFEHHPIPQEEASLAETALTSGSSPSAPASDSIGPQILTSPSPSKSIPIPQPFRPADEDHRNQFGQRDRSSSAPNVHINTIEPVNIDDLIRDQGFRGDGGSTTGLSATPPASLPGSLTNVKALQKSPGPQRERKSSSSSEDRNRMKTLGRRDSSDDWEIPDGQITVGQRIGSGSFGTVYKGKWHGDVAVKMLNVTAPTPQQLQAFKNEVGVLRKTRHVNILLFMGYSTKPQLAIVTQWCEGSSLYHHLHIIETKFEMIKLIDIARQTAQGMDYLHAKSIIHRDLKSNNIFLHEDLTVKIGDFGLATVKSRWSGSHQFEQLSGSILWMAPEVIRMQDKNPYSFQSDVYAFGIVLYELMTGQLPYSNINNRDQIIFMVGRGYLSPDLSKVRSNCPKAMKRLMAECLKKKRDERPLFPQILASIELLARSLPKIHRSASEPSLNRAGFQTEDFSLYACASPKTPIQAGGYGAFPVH
In short: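 Read-out is a DELFIA europium signal from phospho-MEK1 (Ser217/221) antibody after capture of GST-MEK1 (50 nM final) on anti-GST plates. Phosphorylation comes from Sf9-expressed Flag/GST human B-Raf (~20 ng) with ATP/MgCl2, 60 min RT, pH 7.2 MOPS.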

[1] = median, cpd concentrations from 10 μM to 30 nM in half log dilutions, read-out: Median IC50

Compound	IC50 (human B-Raf) [nM]	inhibition at 10 µM (human B-Raf) [%]	IC50 (human B-Raf; [1]) [nM]	melting point [°C]	% Inhib./10 uM (human B-Raf) [%]
COC(=O)c1cccc(-c2cnn3c(-c4cccc(NC(=O)c5cccc(C(F)(F)F)c5)c4)ccnc23)c1 [Example 296, methyl 3-[7-(3-{[3-(trifluoromethyl)benzoyl]amino}phenyl)pyrazolo[1,5-a]pyrimidin-3-yl]benzoate]	1770	53	–	–	–
COC(=O)c1ccc(-c2cnn3c(-c4cccc(NC(=O)c5cccc(C(F)(F)F)c5)c4)ccnc23)cc1 [Example 297, methyl 4-[7-(3-{[3-(trifluoromethyl)benzoyl]amino}phenyl)pyrazolo[1,5-a]pyrimidin-3-yl]benzoate]	2190	75	–	–	–
CC(=O)c1ccccc1-c1cnn2c(-c3cccc(NC(=O)c4cccc(C(F)(F)F)c4)c3)ccnc12 [Example 298, N-{3-[3-(2-acetylphenyl)pyrazolo[1,5-a]pyrimidin-7-yl]phenyl}-3-(trifluoromethyl)benzamide]	266	69	–	–	–
CC(=O)c1cccc(-c2cnn3c(-c4cccc(NC(=O)c5cccc(C(F)(F)F)c5)c4)ccnc23)c1 [Example 299, N-{3-[3-(3-acetylphenyl)pyrazolo[1,5-a]pyrimidin-7-yl]phenyl}-3-(trifluoromethyl)benzamide]	619	63	–	–	–
CC(=O)c1ccc(-c2cnn3c(-c4cccc(NC(=O)c5cccc(C(F)(F)F)c5)c4)ccnc23)cc1 [Example 300, N-{3-[3-(4-acetylphenyl)pyrazolo[1,5-a]pyrimidin-7-yl]phenyl}-3-(trifluoromethyl)benzamide]	4490	71	–	–	–
O=C(Nc1cccc(-c2ccnc3c(-c4ccnc(Cl)c4)cnn23)c1)c1cccc(C(F)(F)F)c1 [Example 301, N-{3-[3-(2-chloropyridin-4-yl)pyrazolo[1,5-a]pyrimidin-7-yl]phenyl}-3-(trifluoromethyl)benzamide]	1730	75	–	–	–
Cc1cc(-c2cccc(NC(=O)c3cccc(C(F)(F)F)c3)c2)n2nc(-c3ccncc3)cc2n1 [Example 302, N-[3-(5-methyl-2-pyridin-4-ylpyrazolo[1,5-a]pyrimidin-7-yl)phenyl]-3-(trifluoromethyl)benzamide]	–	72	800	–	–
CC(O)c1ccccc1-c1cnn2c(-c3cccc(NC(=O)c4cccc(C(F)(F)F)c4)c3)ccnc12 (centres unmarked) [Example 303, N-(3-{3-[2-(1-hydroxyethyl)phenyl]pyrazolo[1,5-a]pyrimidin-7-yl}phenyl)-3-(trifluoromethyl)benzamide]	–	80	288	–	–
CC(O)c1cccc(-c2cnn3c(-c4cccc(NC(=O)c5cccc(C(F)(F)F)c5)c4)ccnc23)c1 (centres unmarked) [Example 304, N-(3-{3-[3-(1-hydroxyethyl)phenyl]pyrazolo[1,5-a]pyrimidin-7-yl}phenyl)-3-(trifluoromethyl)benzamide]	–	80	195	–	–
Cc1ccccc1-c1cnn2c(-c3cccc(NC(=O)c4cccc(C(F)(F)F)c4)c3)ccnc12 [Example 305, N-{3-[3-(2-methylphenyl)pyrazolo[1,5-a]pyrimidin-7-yl]phenyl}-3-(trifluoromethyl)benzamide]	893	54	–	–	–
CN1CC=C(c2cnn3c(-c4cccc(NC(=O)c5cccc(C(F)(F)F)c5)c4)ccnc23)CC1 [Example 306, N-{3-[3-(1-methyl-1,2,3,6-tetrahydropyridin-4-yl)pyrazolo[1,5-a]pyrimidin-7-yl]phenyl}-3-(trifluoromethyl)benzamide]	–	68	851	163 to 165	–
O=C(Nc1cccc(-c2ccnc3c(-c4cnn(CCN5CCCC5)c4)cnn23)c1)c1cccc(C(F)(F)F)c1 [Example 307, N-(3-{3-[1-(2-pyrrolidin-1-ylethyl)-1H-pyrazol-4-yl]pyrazolo[1,5-a]pyrimidin-7-yl}phenyl)-3-(trifluoromethyl)benzamide]	393	–	–	–	–
Cn1cc(-c2cnn3c(-c4cccc(NC(=O)c5cccc(C(F)(F)F)c5)c4)ccnc23)cn1 [Example 308, N-{3-[3-(1-methyl-1H-pyrazol-4-yl)pyrazolo[1,5-a]pyrimidin-7-yl]phenyl}-3-(trifluoromethyl)benzamide]	–	86	281	–	–
CN1CCC(c2cnn3c(-c4cccc(NC(=O)c5cccc(C(F)(F)F)c5)c4)ccnc23)CC1 [Example 309, N-{3-[3-(1-methylpiperidin-4-yl)pyrazolo[1,5-a]pyrimidin-7-yl]phenyl}-3-(trifluoromethyl)benzamide]	–	63	1330	183 to 185	–
O=Cc1cc(C=O)cc(-c2cnn3c(-c4cccc(NC(=O)c5cccc(C(F)(F)F)c5)c4)ccnc23)c1 [Example 310, N-{3-[3-(3,5-diformylphenyl)pyrazolo[1,5-a]pyrimidin-7-yl]phenyl}-3-(trifluoromethyl)benzamide]	–	37	> 10000	–	–
O=C(Nc1cccc(-c2ccnc3c(-c4ccc(F)nc4)cnn23)c1)c1cccc(C(F)(F)F)c1 [Example 311, N-{3-[3-(6-fluoropyridin-3-yl)pyrazolo[1,5-a]pyrimidin-7-yl]phenyl}-3-(trifluoromethyl)benzamide]	10700	80	–	–	–
COc1ccc(-c2cnn3c(-c4cccc(NC(=O)c5cccc(C(F)(F)F)c5)c4)ccnc23)cn1 [Example 312, N-{3-[3-(6-methoxypyridin-3-yl)pyrazolo[1,5-a]pyrimidin-7-yl]phenyl}-3-(trifluoromethyl)benzamide]	578	77	–	–	–
O=Cc1ccc(-c2cnn3c(-c4cccc(NC(=O)c5cccc(C(F)(F)F)c5)c4)ccnc23)o1 [Example 313, N-{3-[3-(5-formyl-2-furyl)pyrazolo[1,5-a]pyrimidin-7-yl]phenyl}-3-(trifluoromethyl)benzamide]	–	78	> 10000	–	–
O=C(O)c1cccc(-c2cnn3c(-c4cccc(NC(=O)c5cccc(C(F)(F)F)c5)c4)ccnc23)c1 [Example 314, 3-[7-(3-{[3-(trifluoromethyl)benzoyl]amino}phenyl)pyrazolo[1,5-a]pyrimidin-3-yl]benzoic acid]	–	82	514	–	–
O=C(Nc1cccc(-c2ccnc3c(-c4ccc(CN5CCCC5)cc4)cnn23)c1)c1cccc(C(F)(F)F)c1 [Example 315, N-(3-{3-[4-(pyrrolidin-1-ylmethyl)phenyl]pyrazolo[1,5-a]pyrimidin-7-yl}phenyl)-3-(trifluoromethyl)benzamide]	20.5	102	–	–	–
O=C(Nc1cccc(-c2ccnc3c(-c4ccc(CN5CCCC5)o4)cnn23)c1)c1cccc(C(F)(F)F)c1 [Example 316, N-(3-{3-[5-(pyrrolidin-1-ylmethyl)-2-furyl]pyrazolo[1,5-a]pyrimidin-7-yl}phenyl)-3-(trifluoromethyl)benzamide]	–	92	541	–	–
O=C(Nc1ccc(F)c(-c2ccnc3cc(-c4ccncc4)nn23)c1)c1cccc(C(F)(F)F)c1 [Example 317, N-[4-fluoro-3-(2-pyridin-4-ylpyrazolo[1,5-a]pyrimidin-7-yl)phenyl]-3-(trifluoromethyl)benzamide]	–	100	42.3	–	–
O=C(Nc1ccc(F)c(-c2ccnc3ccnn23)c1)c1cccc(C(F)(F)F)c1 [Example 318, N-(4-fluoro-3-pyrazolo[1,5-a]pyrimidin-7-ylphenyl)-3-(trifluoromethyl)benzamide]	–	59	3550	–	–
N-{3-[3-(4-methoxyphenyl)pyrazolo[1,5-a]pyrimidin-7-yl]phenyl}-3-(trifluoromethyl)benzamide [Example 159]	–	–	> 10000	–	5
ethyl 7-{3-[(pyridin-3-ylcarbonyl)amino]phenyl}pyrazolo[1,5-a]pyrimidine-3-carboxylate [Example 204]	–	–	> 10000	–	12
ethyl 7-{3-[({[(ethoxycarbonyl)phenyl]amino}carbonyl)amino]phenyl}pyrazolo[1,5-a]pyrimidine-3-carboxylate [Example 15]	–	–	> 10000	–	0
